In patent US10899776B2, “Antiviral and antibacteria agents based on quaternary ammonium compound complexed with boric acid and its derivatives” (B-Organic Films Corp, priority 2015, dated 2021):
Values joined by “and” are separate entries in the source; they are usually repeats but may differ in a detail not shown here. Equal values may be shown once.

How the values were obtained:
[1] = tested on: Vibrio parahaemolyticus CAIM 170; settings: V. parahaemolyticus 1×10^6 cfu/mL, after 96 h; dose 5 mg/g of feed; untreated infected about 30%
[2] = commercial diet supplemented 5 mg/g, fed ad libitum up to 28 days
SOD = settings: RT q-PCR, treated vs non-treated shrimp; feed 5 mg/g
Protocol: (§1) Primer design is performed in the online application «primer3plus» (Untergasser, A., Nijveen, H., Rao, W., Bisseling, T., Geurts, R., Leunissen, J. A. M. 2007, Nucleic Acids Research, 35: 71-74) based in the following features: 18-24 nt length; GC content 35-65% product size 80-250 bp; and ≤2 GC clamp (Wang, X. and Seed, B., 2007). The primers are evaluated in the online application «Oligo Evaluator» Sigma Aldrich™ (St' Louis, Mo.) to check thermodynamic characteristics based in self-aligned primer and primer-dimer structures. The primers selected are ≤−2 Kcal/mol and evaluated using an in silico PCR software «Primer Digital» (Kalender et al., 2011). RNA extracts used for the microarray hybridizations are converted to cDNA using promega GoScript™ Reverse Transcription System (Promega Corporation, Madison, Wis., USA) and SsoFast™ EvaGreen® Supermix (Bio-Rad, Hercules, Calif., USA) for RT-qPCR.

Toll-Like Receptor = settings: RT q-PCR, treated vs non-treated shrimp; feed 5 mg/g
Protocol: as §1

white shrimp L. vannamei = settings: in vivo

C[N+](C)(C)CCOB1OB2OB(O1)OB1OB(O2)O1.[Cl-] [choline/pentaborate complex]
survival [1]: > 80% and 84% | increment in mean weight compared with control group [2]: 20% | increase of expression of SOD gene (SOD): more than 200 fold | increase of expression of Toll-Like Receptor gene (Toll-Like Receptor): more than 200 fold | toxicity (summary statement) (white shrimp L. vannamei): not toxic
